Data as given in publication PMC8213057, “Targeting ALK2: An Open Science Approach to Developing Therapeutics for the Treatment of Diffuse Intrinsic Pontine Glioma” (Journal of Medicinal Chemistry, 2020).
“And” between values parts separate entries of the source, which are not always exact repeats. Equal entries are not always repeated.

Legend:
[1] = target: T1, PDK1/PDPK1 (Homo sapiens, UniProt O15530); experiment: biochemical; conditions: read-out: % enzyme activity, 1 μM; Run 1, Run 2
T1 sequence (O15530 1-556): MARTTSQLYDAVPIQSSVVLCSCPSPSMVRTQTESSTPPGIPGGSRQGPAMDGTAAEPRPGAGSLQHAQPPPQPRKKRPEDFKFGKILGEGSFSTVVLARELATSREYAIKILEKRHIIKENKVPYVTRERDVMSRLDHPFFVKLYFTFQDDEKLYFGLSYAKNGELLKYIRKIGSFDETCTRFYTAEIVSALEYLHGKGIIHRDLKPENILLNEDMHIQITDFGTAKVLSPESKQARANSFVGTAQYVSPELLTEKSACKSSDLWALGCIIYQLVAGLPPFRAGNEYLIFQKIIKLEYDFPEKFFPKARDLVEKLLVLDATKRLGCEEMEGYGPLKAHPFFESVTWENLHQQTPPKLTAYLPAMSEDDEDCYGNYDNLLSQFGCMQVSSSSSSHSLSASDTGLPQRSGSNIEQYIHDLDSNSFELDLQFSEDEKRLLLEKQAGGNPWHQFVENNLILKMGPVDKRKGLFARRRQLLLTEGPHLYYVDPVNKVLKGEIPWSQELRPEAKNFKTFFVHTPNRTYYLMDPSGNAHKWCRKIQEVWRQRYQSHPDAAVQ

[2] = target: T2, CHK1 (Homo sapiens, UniProt O14757); conditions: 1 μM; Run 1, Run 2
T2 sequence (O14757 1-476): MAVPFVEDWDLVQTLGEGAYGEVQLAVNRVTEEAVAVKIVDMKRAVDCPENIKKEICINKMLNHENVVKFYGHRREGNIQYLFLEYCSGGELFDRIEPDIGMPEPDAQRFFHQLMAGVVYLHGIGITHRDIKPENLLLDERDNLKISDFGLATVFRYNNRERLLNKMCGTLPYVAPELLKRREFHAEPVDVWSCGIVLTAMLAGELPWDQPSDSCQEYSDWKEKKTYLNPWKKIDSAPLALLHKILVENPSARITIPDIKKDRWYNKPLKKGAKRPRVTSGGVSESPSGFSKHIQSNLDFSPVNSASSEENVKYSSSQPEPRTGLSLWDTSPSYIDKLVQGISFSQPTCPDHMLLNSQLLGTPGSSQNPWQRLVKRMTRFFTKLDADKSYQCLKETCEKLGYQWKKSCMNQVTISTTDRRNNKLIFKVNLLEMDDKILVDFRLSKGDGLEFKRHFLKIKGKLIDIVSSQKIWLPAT

[3] = target: HCK (Homo sapiens, UniProt P08631); experiment: biochemical; conditions: read-out: % enzyme activity, 1 μM; Run 1, Run 2
[4] = target: IRR/INSRR (Homo sapiens, UniProt P14616); conditions: 1 μM; Run 1, Run 2
[5] = target: CAMK2a (Homo sapiens, UniProt Q9UQM7); conditions: 1 μM; Run 1, Run 2
[6] = target: T3, NEK8 (Homo sapiens, UniProt Q86SG6); experiment: biochemical; conditions: read-out: % enzyme activity, 1 μM; Run 1, Run 2
T3 sequence (Q86SG6 1-692): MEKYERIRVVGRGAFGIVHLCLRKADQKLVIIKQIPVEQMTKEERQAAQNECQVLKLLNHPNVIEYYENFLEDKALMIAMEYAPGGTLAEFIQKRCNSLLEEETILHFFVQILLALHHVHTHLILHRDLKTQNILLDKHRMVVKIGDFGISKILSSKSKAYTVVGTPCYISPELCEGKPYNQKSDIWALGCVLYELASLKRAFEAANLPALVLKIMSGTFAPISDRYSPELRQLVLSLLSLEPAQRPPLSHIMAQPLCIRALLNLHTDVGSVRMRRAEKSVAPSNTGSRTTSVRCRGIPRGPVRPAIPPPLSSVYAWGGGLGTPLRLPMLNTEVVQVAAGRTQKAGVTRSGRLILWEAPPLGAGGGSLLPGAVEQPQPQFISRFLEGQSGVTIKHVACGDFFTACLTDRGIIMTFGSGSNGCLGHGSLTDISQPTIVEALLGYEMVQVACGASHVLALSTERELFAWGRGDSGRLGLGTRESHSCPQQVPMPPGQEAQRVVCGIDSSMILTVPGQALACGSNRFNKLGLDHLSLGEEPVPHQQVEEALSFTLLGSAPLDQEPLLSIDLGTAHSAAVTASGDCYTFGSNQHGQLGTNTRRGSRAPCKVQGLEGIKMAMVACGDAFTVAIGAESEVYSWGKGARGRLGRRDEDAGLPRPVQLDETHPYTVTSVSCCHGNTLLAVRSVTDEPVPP

[7] = target: T4, MKK4 (Homo sapiens, UniProt P45985); experiment: biochemical; conditions: read-out: % enzyme activity, 1 μM; Run 1, Run 2
T4 sequence (P45985 1-399): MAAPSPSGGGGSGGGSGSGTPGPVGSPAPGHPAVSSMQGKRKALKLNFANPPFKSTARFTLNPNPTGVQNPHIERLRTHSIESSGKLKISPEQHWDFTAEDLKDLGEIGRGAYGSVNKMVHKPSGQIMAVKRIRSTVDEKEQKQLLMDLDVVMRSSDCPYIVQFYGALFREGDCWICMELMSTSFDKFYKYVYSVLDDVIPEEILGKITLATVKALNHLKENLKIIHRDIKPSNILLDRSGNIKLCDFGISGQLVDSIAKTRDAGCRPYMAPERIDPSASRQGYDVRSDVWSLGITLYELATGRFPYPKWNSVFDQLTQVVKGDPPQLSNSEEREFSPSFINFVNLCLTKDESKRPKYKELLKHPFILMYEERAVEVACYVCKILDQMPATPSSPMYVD

[8] = system: ALK4/ACVR1B
[9] = target: T2, CHK1; experiment: biochemical; conditions: read-out: % enzyme activity, 1 μM; Run 1, Run 2
[10] = target: FES/FPS (Homo sapiens, UniProt P07332); experiment: biochemical; conditions: read-out: % enzyme activity, 1 μM; Run 1, Run 2
Sequence of FES/FPS (P07332 whole entry): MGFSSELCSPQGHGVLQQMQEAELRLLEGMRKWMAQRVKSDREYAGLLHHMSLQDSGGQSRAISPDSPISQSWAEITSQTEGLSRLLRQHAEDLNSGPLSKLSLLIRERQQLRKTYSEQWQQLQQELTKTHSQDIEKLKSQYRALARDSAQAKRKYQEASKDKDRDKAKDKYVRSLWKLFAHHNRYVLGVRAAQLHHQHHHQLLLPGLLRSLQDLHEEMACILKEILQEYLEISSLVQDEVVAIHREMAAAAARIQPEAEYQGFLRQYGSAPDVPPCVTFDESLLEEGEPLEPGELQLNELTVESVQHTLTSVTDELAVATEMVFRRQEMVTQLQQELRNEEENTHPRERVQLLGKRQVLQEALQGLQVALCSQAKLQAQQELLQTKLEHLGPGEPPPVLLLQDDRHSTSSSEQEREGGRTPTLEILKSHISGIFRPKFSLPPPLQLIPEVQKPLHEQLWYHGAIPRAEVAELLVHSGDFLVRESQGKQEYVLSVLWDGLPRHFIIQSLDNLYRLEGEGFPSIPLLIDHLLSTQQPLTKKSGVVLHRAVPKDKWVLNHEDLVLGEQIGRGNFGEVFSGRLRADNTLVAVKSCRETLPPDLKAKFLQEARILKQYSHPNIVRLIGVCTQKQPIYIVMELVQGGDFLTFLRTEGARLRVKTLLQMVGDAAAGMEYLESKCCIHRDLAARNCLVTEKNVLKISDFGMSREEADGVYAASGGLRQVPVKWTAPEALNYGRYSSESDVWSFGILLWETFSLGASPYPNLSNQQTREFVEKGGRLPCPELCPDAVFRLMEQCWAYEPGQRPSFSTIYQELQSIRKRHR

Sequence of CAMK2a (Q9UQM7 whole entry): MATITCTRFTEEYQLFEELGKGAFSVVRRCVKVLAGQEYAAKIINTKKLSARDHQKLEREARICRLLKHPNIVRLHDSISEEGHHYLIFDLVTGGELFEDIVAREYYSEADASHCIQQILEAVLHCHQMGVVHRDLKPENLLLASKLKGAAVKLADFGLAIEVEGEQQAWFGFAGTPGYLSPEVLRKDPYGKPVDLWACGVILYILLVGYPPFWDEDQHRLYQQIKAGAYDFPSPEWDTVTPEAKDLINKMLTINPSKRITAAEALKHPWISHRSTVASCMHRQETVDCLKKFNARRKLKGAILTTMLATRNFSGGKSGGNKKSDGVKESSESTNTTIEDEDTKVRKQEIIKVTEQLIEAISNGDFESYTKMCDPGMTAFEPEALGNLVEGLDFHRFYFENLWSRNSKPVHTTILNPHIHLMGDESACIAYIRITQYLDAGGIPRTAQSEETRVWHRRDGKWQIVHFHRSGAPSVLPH
Sequence of HCK (P08631 whole entry): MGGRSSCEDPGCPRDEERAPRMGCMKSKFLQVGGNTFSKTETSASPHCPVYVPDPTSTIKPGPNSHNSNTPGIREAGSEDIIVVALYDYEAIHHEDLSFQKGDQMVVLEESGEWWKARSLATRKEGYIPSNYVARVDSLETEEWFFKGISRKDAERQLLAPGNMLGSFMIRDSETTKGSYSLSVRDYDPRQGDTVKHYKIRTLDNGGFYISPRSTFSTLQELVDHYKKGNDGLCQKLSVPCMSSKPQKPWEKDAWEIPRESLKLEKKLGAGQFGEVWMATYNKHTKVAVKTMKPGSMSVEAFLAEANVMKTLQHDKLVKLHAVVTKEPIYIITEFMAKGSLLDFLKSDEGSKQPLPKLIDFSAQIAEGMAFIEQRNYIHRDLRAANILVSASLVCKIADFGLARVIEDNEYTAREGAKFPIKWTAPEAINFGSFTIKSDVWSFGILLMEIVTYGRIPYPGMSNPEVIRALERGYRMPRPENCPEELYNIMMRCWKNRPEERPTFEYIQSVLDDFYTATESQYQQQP
Sequence of IRR/INSRR (P14616 27-1297): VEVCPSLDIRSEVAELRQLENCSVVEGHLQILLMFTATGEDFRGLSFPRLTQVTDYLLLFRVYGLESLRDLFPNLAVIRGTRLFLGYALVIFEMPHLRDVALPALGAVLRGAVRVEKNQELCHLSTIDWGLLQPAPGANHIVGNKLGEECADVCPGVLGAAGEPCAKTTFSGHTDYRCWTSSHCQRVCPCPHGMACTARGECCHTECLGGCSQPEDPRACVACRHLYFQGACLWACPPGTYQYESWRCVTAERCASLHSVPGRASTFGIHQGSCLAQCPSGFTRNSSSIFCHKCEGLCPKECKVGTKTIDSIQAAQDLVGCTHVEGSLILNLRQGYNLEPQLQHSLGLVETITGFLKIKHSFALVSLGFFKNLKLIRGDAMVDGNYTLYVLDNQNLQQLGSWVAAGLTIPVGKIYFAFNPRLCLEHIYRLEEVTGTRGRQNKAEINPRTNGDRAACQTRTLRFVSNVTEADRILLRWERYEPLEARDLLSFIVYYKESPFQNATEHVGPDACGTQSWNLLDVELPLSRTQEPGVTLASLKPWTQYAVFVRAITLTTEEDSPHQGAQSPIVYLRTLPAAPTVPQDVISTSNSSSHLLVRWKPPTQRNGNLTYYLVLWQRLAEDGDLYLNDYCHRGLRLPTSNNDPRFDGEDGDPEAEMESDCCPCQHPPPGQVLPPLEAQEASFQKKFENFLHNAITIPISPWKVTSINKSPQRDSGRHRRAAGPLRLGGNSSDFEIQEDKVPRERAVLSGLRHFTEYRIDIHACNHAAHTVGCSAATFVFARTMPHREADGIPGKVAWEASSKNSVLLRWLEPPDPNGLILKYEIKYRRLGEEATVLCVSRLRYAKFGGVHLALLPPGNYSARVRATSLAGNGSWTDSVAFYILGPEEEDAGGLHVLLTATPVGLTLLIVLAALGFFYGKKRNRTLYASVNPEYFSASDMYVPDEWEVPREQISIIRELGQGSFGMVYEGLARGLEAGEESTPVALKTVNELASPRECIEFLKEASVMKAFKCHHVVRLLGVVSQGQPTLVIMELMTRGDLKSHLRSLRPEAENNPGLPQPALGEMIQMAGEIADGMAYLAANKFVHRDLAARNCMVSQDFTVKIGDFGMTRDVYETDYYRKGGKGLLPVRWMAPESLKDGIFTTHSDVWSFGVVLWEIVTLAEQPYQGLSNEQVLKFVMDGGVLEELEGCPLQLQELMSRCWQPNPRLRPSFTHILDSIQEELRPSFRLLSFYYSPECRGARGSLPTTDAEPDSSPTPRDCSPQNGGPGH

SMILES	remaining activity at 1 µM [1]	% enzyme activity [2]	remaining activity at 1 µM [3]	% enzyme activity [4]	% enzyme activity [5]	remaining activity at 1 µM [6]	remaining activity at 1 µM [7]	% enzyme activity at 1 μM [8]	remaining activity at 1 µM [9]	remaining activity at 1 µM [10]
COc1cc(-c2cncc(-c3ccc(N4CCN(C)CC4)cc3)c2C)cc(F)c1C(N)=O [Compound 26a, 2-Fluoro-6-methoxy-4-(4-methyl-5-(4-(4-methylpiperazin-1-yl)phenyl)pyridin-3-yl)benzamide]	94.3%	94.26%	93.6%	99.85%	83.69%	98.4%	101%	68.8%	98.2%	99.9%
COc1cc(-c2cncc(-c3ccc(N4C[C@@H](C)N(C)[C@@H](C)C4)cc3)c2C)cc(F)c1C(N)=O [Compound 26c, 2-Fluoro-6-methoxy-4-(4-methyl-5-(4-((3R,5S)-3,4,5-trimethylpiperazin-1-yl)phenyl)pyridin-3-yl)benzamide]	95.9%	100.95%	91.8%	113.76%	93.72%	109%	94.6%	82.4% and 81.7%	117%	98.7%
